Assay results published in patent publication US6335339B1, “Triazine antiviral compounds” (Scriptgen Pharmaceuticals, Inc., priority 1998, dated 2002).

Tests used:
[1] = tested on: HBV εRNA; experiment: εRNA/oligonucleotide hybridization inhibition assay with rRNA competitor; assay type: binding, Hepatitis B virus; conditions: for IC50: radiolabeled εRNA, 60-fold excess rRNA competitor; for Specificity: ratio RRE+rRNA IC50/εRNA+rRNA IC50, max = inactive in RRE assay
Source text: One assay used in determining the activity of the compounds of the present invention is disclosed in copending U.S. patent application Ser. No. 08/709,342, filed Sep. 6, 1996, the disclosure of which is hereby incorporated herein by reference in its entirety. The assay detects the interaction between target RNA molecule and a test ligand by measuring the ligand's ability to inhibit hybridization between the RNA and a specific complementary oligonucleotide. In one embodiment, the target RNA is radiolabelled and the oligonucleotide is labeled with biotin; in this case, the extent of hybridization is determined by measuring the amount of radiolabeled RNA detected with a streptavidin/biotin-based capture system.
Concentrations of test compounds of between about 0.1 μM and about 200 μM are assayed for inhibition using radiolabeled εRNA in the absence or presence of a large excess of an unlabeled non-specific RNA competitor (such as, e.g., ribosomal RNA, rRNA). Compounds that bind εRNA non-specifically are competitively displaced by the rRNA, resulting in reduced or no inhibition of hybridization between the radiolabeled εRNA and the biotinylated oligonucleotide. Conversely, the inhibitory activity of compounds that specifically bind εRNA is not affected by the presence of the competitor rRNA.
The high throughput assays were performed in 96-well plates containing eighty drugs (5 μl, 60 μg/ml in DMSO) distributed one per well in columns 2-6 and 8-12 of the 8×12 96-well array. The remaining 16 wells in columns 1 and 7 were filled with 5 μl DMSO to serve as the control reactions. 45 μl of reaction mixture containing buffer, salts and radiolabeled target RNA were delivered on each well of the compound-containing plates to yield a 50 μl mixture containing 50 mM Tris-HCl, pH 7.5, 200 mM KCl, 5 mM MgCl2, 5 mM DTT, 6 μg/ml test compound, and 25 nM [^32 P]-labeled εRNA. The reaction was started by addition of the biotinylated oligonucleotide, 262.104 A (5 μl) to a final concentration of 100 nM. The reaction was incubated at 25° C. for 60 minutes, and then 5 μl of 0.3 mg/ml SAAP (streptavidin alkaline phosphatase conjugate, Pierce, Rockford, Ill.) was added. The reaction was incubated for an additional 30 minutes at 25° C. and filtered through 96-well format HATF nitrocellulose filters (Millipore, Bedford, Mass.) using a multiscreen vacuum manifold (Millipore, Bedford, Mass.). Subsequently, 300 μl of wash buffer (50 mM Tris-HCl, pH 7.5, 200 mM KCl) was filtered through to wash the filters. The filters were dried and supplemented with 20 μl scintillation fluid (Super Mix, Wallac Oy, Turku, Finland). The amount of hybrids formed was determined by scintillation counting of the radiolabeled εRNA retained on the filters.
The inhibitory effect of a test compound (expressed as percentage of inhibition, % Inh.) was calculated using the following formula: […]
where Ro is the average retention of hybrids in the 16 identical control reactions in columns 1 and 7 and Rx is the hybrids retained in the presence of a test drug, x.
(§1) Biotinylated oligonucleotides 262.104 A (5′-biotin-TTAGGCACAGCTTGGAGGCTTGAACAGTG-3′) and 208.92 A (5′-biotin-CGTCATTGACGCTGCGCCCA-3′) were synthetically prepared (Oligos Etc., Willsonville, Oreg.). These oligonucleotides are complementary to regions of the εRNA and RRE RNA targets, respectively.
A plasmid containing the target sequence following the bacteriophage SP6 promoter was used as a template for the synthesis of radiolabeled εRNA using [α^32 P]-UTP and SP6 RNA polymerase as described by the suppliers, e.g., Ambion, Austin, Tex., and by methods well known to those of ordinary skill in the art.
Compounds that inhibited the primary screening assay described above were individually titrated in the same assay at concentrations between 0.1 μM and 200 μM in the absence and presence of 60-fold excess rRNA as a non-specific competitor. […]

[2] = tested on: HIV derived RRE RNA; experiment: heterologous hybridization inhibition assay with RRE RNA; assay type: binding; conditions: radiolabeled RRE RNA, rRNA competitor
Source text: Specificity is further tested in a third assay in which the radiolabeled RNA is the HIV derived RRE RNA and the biotinylated oligonucleotide is complementary to RRE. Compounds with high specific activity for εRNA are not expected to be inhibitory in the RRE RNA based assay. The specificity of the ligand for εRNA is expressed as the ratio between the IC50 value obtained with the specific target RNA and the IC50 value obtained with a heterologous target (RRE RNA), both in the presence of competitor RNA.
as §1
Compounds that inhibited the primary screening assay described above were individually titrated in the same assay at concentrations between 0.1 μM and 200 μM in the absence and presence of 60-fold excess rRNA as a non-specific competitor. A third titration was performed in a heterologous assay using radiolabeled RRE RNA as the target and the complementary biotinylated oligonucleotide 208.92 A. From these three assays, the IC50 values and specificity for each compound was calculated.
IC50 values using rRNA competitor (from Example 1) and radiolabeled RRE RNA are shown in Table 1 for the following ligands. […] Specificity is calculated as the ratio of RRE+rRNA IC50/εRNA+rRNA IC50.

SMILES | IC50 [1] [µM] | Specificity [1] | IC50 [2] [µM]
C(=NNc1nc(Nc2ccccc2)nc(N2CCCC2)n1)c1c[nH]c2ccccc12 [Compound 89] | 12.5 | 6.0 | 75.3
O=[N+]([O-])c1ccc(Nc2nc(NN=Cc3cc(Br)ccc3O)nc(N3CCCCCC3)n2)cc1 [Compound 90] | 15 | 3.0 | 44.9
Cc1[nH]c2ccccc2c1C=NNc1nc(Nc2ccc([N+](=O)[O-])cc2)nc(N2CCCCCC2)n1 [Compound 92] | 2.5 | 4.0 | 10.1
CN1CCN(c2nc(NN=Cc3cccc(Br)c3)nc(Nc3ccc([N+](=O)[O-])cc3)n2)CC1 [Compound 95] | 13.7 | 2.8 | 39
O=[N+]([O-])c1ccc(Nc2nc(NN=Cc3c(O)ccc4ccccc34)nc(N3CCOCC3)n2)cc1 [Compound 96] | 15 | 5.0 | 75
O=[N+]([O-])c1ccc(Nc2nc(NN=Cc3cc(Cl)ccc3O)nc(N3CCOCC3)n2)cc1 [Compound 106] | 12.1 | 5.8 | 70.1
O=[N+]([O-])c1ccc(Nc2nc(NN=Cc3cc(Br)ccc3O)nc(N3CCOCC3)n2)cc1 [Compound 107] | 14.9 | 1.7 | 25
O=[N+]([O-])c1ccc(Nc2nc(NN=Cc3cc(I)ccc3O)nc(N3CCCCC3)n2)cc1 [Compound 108] | 16.1 | 2.5 | 40
Cc1cc(I)cc(C=NNc2nc(Nc3ccc([N+](=O)[O-])cc3)nc(N3CCCCC3)n2)c1O [Compound 109] | 20 | 1.8 | 35
O=[N+]([O-])c1ccc(Nc2nc(NN=Cc3ccccc3)nc(N3CCOCC3)n2)cc1 [Compound 110] | 20 | 4.0 | 79.9
O=[N+]([O-])c1ccc(Nc2nc(NN=Cc3ccc(O)cc3)nc(N3CCCCC3)n2)cc1 [Compound 111] | 23 | 20.0 | 460
Cc1ccccc1Nc1nc(NN=Cc2ccc(-c3ccc([N+](=O)[O-])cc3)o2)nc(Nc2ccc([N+](=O)[O-])cc2)n1 [Compound 112] | 25 | 30.0 | 751
CCCCN(CCCC)c1nc(NN=Cc2cc3c(cc2Br)OCO3)nc(Nc2ccc([N+](=O)[O-])cc2)n1 [Compound 114] | 40 | 5.5 | 220
CCN(CC)c1nc(NN=Cc2ccncc2)nc(Nc2ccc([N+](=O)[O-])cc2)n1 [Compound 115] | 75.1 | 1.7 | 130
O=[N+]([O-])c1ccc(Nc2nc(NN=Cc3cccc(Oc4ccc([N+](=O)[O-])cc4[N+](=O)[O-])c3)nc(N3CCCCCC3)n2)cc1 [Compound 116] | 20 | 1.3 | 25.1
CC(=NNc1nc(Nc2ccc([N+](=O)[O-])cc2)nc(N2CCOCC2)n1)c1ccc([N+](=O)[O-])cc1 [Compound 118] | 25 | 2.0 | 50.1

SMILES | IC50 [1] [µM] | Specificity [1] | IC50 [2] [µM]
Oc1ccc(C=NNc2nc(Nc3ccccc3)nc(N3CCCC3)n2)c(O)c1 [Compound 119] | 35 | 7.1 | 250
O=[N+]([O-])c1ccc(Nc2nc(NN=Cc3ccccc3I)nc(N3CCCCC3)n2)cc1 [Compound 124] | 29.9 | 10.0 | 300
COc1ccc(C=NNc2nc(Nc3ccccc3)nc(Nc3ccc(C)cc3C)n2)cc1 [Compound 126] | 60.1 | 8.3 | 500
Clc1ccccc1C=NNc1nc(Nc2ccccc2)nc(N2CCCC2)n1 [Compound 127] | 80 | 1.0 | 80
Cc1[nH]c2ccccc2c1C=NNc1nc(Nc2ccc([N+](=O)[O-])cc2)nc(N2CCOCC2)n1 [Compound 128] | 22 | 4.5 | 99.9
CCOc1ccc(C=NNc2nc(Nc3ccc([N+](=O)[O-])cc3)nc(N3CCCCC3)n2)cc1O [Compound 129] | 25 | 4.8 | 120
O=C1Nc2ccccc2C1=NNc1nc(Nc2ccc([N+](=O)[O-])cc2)nc(N2CCOCC2)n1 [Compound 130] | 32.9 | 12.2 | 400
O=C(C(=NNc1nc(NCc2ccccc2)nc(Nc2ccc([N+](=O)[O-])cc2)n1)c1ccccc1)c1ccccc1 [Compound 131] | 36.7 | 1.0 | 36.7
CCN(CC)c1nc(NN=CC=Cc2ccccc2)nc(Nc2ccc([N+](=O)[O-])cc2)n1 [Compound 132] | 70.1 | 11.4 | 800
Cc1[nH]c2ccccc2c1C=NNc1nc(NCc2ccccc2)nc(N2CCOCC2)n1 [Compound 142] | 226 | 5.0 | 1130
COc1ccc([N+](=O)[O-])cc1C=NNc1nc(Nc2ccccc2)nc(N2CCCCC2)n1 [Compound 143] | 446 | 0.5 | 223
O=[N+]([O-])c1ccc(Nc2nc(NN=Cc3ccc(-c4ccc([N+](=O)[O-])cc4)o3)nc(Nc3ccccc3)n2)cc1 [Compound 144] | 1000 | 0.1 | 99.9
CC(=NNc1nc(Nc2ccc([N+](=O)[O-])cc2)nc(N2CCCCC2)n1)c1ccccc1 [Compound 151] | 200 | 3.5 | 700
O=[N+]([O-])c1ccc(Nc2nc(NN=Cc3ccc(O)c([N+](=O)[O-])c3)nc(N3CCOCC3)n2)cc1 [Compound 152] | 300 | 0.5 | 150
O=C1Nc2ccccc2C1=NNc1nc(Nc2ccc([N+](=O)[O-])cc2)nc(N2CCCCC2)n1 [Compound 153] | 500 | 1.0 | 500
CCCCN(CCCC)c1nc(NN=Cc2ccc(C=NNc3nc(Nc4ccc([N+](=O)[O-])cc4)nc(N(CCCC)CCCC)n3)cc2)nc(Nc2ccc([N+](=O)[O-])cc2)n1 [Compound 154] | 1180 | 0.3 | 300
